# Reference: patent publication US20230203041A1, “ANTAGONISTS OF THE ADENOSINE A2A RECEPTOR” (AdoRx Therapeutics Limited, priority 2020, published 2023)
# Where a name gives a salt, the structure may show the parent alone.
# Key:
# [1] = biological target: T1, human Adenosine A2a receptor (Homo sapiens, UniProt P29274); assay: Adenosine receptor TR-FRET binding assay (CA200645 displacement), A2a; conditions: 100 nM CA200645, CHO cell membranes, 2 hours at room temperature
# T1 construct: expressed in transfected cells; host or cells: CHO cell membranes
# T1 sequence (P29274 whole entry): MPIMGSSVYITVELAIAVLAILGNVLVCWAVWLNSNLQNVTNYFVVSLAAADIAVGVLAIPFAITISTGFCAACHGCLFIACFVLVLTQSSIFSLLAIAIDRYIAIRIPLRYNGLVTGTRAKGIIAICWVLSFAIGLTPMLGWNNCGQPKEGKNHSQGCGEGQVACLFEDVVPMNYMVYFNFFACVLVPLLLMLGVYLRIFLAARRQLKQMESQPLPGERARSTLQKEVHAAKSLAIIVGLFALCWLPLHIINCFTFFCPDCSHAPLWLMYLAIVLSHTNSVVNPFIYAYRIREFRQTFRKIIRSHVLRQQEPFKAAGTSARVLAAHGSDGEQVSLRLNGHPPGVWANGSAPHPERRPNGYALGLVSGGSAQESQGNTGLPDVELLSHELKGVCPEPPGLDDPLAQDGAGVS
# [2] = biological target: T2, human Adenosine A2b receptor (Homo sapiens, UniProt P29275); assay: Adenosine receptor TR-FRET binding assay (CA200645 displacement), A2b; conditions: 30 nM CA200645, CHO cell membranes, 2 hours at room temperature
# T2 construct: expressed in transfected cells; host or cells: CHO cell membranes
# T2 sequence (P29275 1-332): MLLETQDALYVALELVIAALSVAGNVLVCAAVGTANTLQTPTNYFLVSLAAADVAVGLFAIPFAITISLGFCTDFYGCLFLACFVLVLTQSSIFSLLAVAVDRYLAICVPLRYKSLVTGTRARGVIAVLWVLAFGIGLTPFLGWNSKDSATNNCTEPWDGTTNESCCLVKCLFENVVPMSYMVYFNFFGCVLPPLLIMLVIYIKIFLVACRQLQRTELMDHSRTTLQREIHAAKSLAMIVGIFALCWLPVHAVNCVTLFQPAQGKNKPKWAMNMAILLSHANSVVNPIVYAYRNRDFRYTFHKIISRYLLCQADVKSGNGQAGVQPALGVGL
# Experimental: (§1) All FRET binding experiments were conducted at room temperature in white 384-well plates, in assay binding buffer containing 1×LabMed (Cisbio, France), 100 μg/mL saponin, 1% DMSO and 0.02% pluronic acid. Binding of the fluorescently labelled Adenosine receptor antagonist XAC (CA200645, FRET acceptor) to terbium-labelled A1, A2a, A2b and A3 adenosine receptors (FRET donors) was detected by time-resolved FRET due to the close proximity of the donor and acceptor in a binding event. To investigate the ability of unlabelled test compounds to bind to Adenosine A1, A2a, A2b and A3 receptors, dose response curves were constructed that determined the ability of a range of concentrations to inhibit the binding of 30 nM CA200645 to the A2b receptor and 100 nM CA200645 to the A1, A2a, and A3 receptor.
# (§2) Serial dilution (1:3 dilutions) of test compounds in neat DMSO and transfer of a 400 nL sample of test compound into the assay plate was carried out using the Mosquito (TTP Labtech, UK). The compound samples were incubated for 2 hours at room temperature with a fixed concentration of CA200645 defined for each receptor (see above) and CHO cell membranes containing the human Adenosine A1 (0.5 μg/well), A2a (0.3 μg/well), A2b (1 μg/well) or A3 (1 μg/well) receptor in 40 μL of assay buffer. Total and non-specific binding of CA200645 was determined in the absence and presence of 10 μM XAC, respectively. Following 2 hours incubation, the level of CA200645 binding was detected on a Pherastar FSX (BMG Labtech, Germany) using standard TR-FRET settings. The terbium donor was excited with three laser flashes at a wavelength of 337 nm, and donor and acceptor emission was detected at 620 nm and 665 nm wavelengths, respectively. FRET ratios were obtained by multiplying the acceptor/donor ratio value by 10,000. Specific binding was determined by subtracting the non-specific binding FRET ratio from the total binding FRET ratio. Compound IC50 curves were analysed using GraphPad Prism 7.0 (GraphPad, USA) and Ki affinity values were determined from the obtained IC50 values using the method of Cheng and Prusoff.
# [3] = biological target: T3, human Adenosine A1 receptor (Homo sapiens, UniProt P30542); assay: Adenosine receptor TR-FRET binding assay (CA200645 displacement), A1
# T3 sequence (P30542 1-326): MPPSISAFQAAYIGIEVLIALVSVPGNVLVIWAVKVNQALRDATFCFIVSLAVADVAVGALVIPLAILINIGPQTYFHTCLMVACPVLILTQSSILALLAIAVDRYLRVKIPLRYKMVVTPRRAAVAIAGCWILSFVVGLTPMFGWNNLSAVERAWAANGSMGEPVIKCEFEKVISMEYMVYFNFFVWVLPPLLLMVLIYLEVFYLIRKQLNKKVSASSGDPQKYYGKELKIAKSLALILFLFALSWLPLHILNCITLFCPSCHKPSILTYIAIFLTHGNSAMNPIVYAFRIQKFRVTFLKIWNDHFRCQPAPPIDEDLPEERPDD
# [4] = biological target: T4, human Adenosine A3 receptor (Homo sapiens, UniProt P0DMS8); assay: Adenosine receptor TR-FRET binding assay (CA200645 displacement), A3
# T4 sequence (P0DMS8 1-318): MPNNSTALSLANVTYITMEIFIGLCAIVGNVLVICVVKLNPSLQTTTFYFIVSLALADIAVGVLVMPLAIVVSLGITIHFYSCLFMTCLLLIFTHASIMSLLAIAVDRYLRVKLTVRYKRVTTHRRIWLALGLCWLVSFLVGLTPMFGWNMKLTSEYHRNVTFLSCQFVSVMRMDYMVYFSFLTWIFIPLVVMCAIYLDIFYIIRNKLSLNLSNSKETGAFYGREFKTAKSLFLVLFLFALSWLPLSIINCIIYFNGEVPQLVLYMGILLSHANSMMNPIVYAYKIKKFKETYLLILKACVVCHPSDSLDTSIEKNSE
# Experimental: as §1, §2
Structure (SMILES),Ki [1],Ki [2],Ki [3],Ki [4]
"Cc1cc(-c2c(-c3cccc(C#N)c3)nn3ccc(N)nc23)cc(N(C)C)n1 [Example 29, 3-[5-Amino-3-[2-(dimethylamino)-6-methyl-4-pyridyl]pyrazolo[1,5-a]pyrimidin-2-yl]benzonitrile]",15.2 nM,56 nM,144 nM,> 1000 nM
"Cc1cc(-c2c(-c3cccc(C#N)c3)nn3ccc(NC(=O)NCC(C)(C)O)nc23)cc(Cl)n1 [Example 30.1, 1-[3-(2-Chloro-6-methyl-4-pyridyl)-2-(3-cyanophenyl)pyrazolo[1,5-a]pyrimidin-5-yl]-3-(2-hydroxy-2-methyl-propyl)urea]",1.3 nM,5 nM,26 nM,> 1000 nM
"CCN1CCC(NC(=O)Nc2ccn3nc(-c4cccc(C#N)c4)c(-c4cc(C)nc(Cl)c4)c3n2)CC1 [Example 30.2, 1-[3-(2-Chloro-6-methyl-4-pyridyl)-2-(3-cyanophenyl)pyrazolo[1,5-a]pyrimidin-5-yl]-3-(1-ethyl-4-piperidyl)urea]",31.5 nM,49 nM,130 nM,> 1000 nM
"Cc1cc(-c2c(-c3cccc(C#N)c3)nn3ccc(NC(=O)N4CC5(COC5)C4)nc23)cc(C)n1 [Example 30.4, N-[2-(3-Cyanophenyl)-3-(2,6-dimethyl-4-pyridyl)pyrazolo[1,5-a]pyrimidin-5-yl]-2-oxa-6-azaspiro[3.3]heptane-6-carboxamide]",7.8 nM,73 nM,103 nM,> 1000 nM
"Cc1cc(-c2c(-c3cccc(C#N)c3)nn3ccc(NC(=O)N4CCC(C)(C#N)CC4)nc23)cc(C)n1 [Example 30.5, 4-Cyano-N-[2-(3-cyanophenyl)-3-(2,6-dimethyl-4-pyridyl)pyrazolo[1,5-a]pyrimidin-5-yl]-4-methyl-piperidine-1-carboxamide]",8.4 nM,28 nM,262 nM,> 1000 nM
"Cc1cc(-c2c(-c3cccc(C#N)c3)nn3ccc(NC(=O)N4CCNCC4)nc23)cc(Cl)n1 [Example 31, N-[3-(2-Chloro-6-methyl-4-pyridyl)-2-(3-cyanophenyl)pyrazolo[1,5-a]pyrimidin-5-yl]piperazine-1-carboxamide]",10.4 nM,2 nM,96 nM,> 1000 nM
"Cc1cc(-c2c(-c3cccc(C#N)c3)nn3ccc(NC(=O)N[C@H]4CCNC4)nc23)cc(Cl)n1 [Example 31.1, 1-[3-(2-Chloro-6-methyl-4-pyridyl)-2-(3-cyanophenyl)pyrazolo[1,5-a]pyrimidin-5-yl]-3-[(3S)-pyrrolidin-3-yl]urea trifluoroacetate]",10.8 nM,15 nM,200 nM,> 1000 nM
"Cc1cc(-c2c(-c3cccc(C#N)c3)nn3ccc(NC(=O)NCCN)nc23)cc(Cl)n1 [Example 31.2, 1-(2-Aminoethyl)-3-[3-(2-chloro-6-methyl-4-pyridyl)-2-(3-cyanophenyl)pyrazolo[1,5-a]pyrimidin-5-yl]urea trifluoroacetate]",4.6 nM,6 nM,238 nM,> 1000 nM
"Cc1cc(-c2c(-c3cccc(C#N)c3)nn3ccc(NC(=O)N[C@@H]4CCNC4)nc23)cc(Cl)n1 [Example 31.3, 1-[3-(2-Chloro-6-methyl-4-pyridyl)-2-(3-cyanophenyl)pyrazolo[1,5-a]pyrimidin-5-yl]-3-[(3R)-pyrrolidin-3-yl]urea trifluoroacetate]",4.6 nM,5 nM,151 nM,> 1000 nM
"Cc1cc(-c2c(-c3cccc(C#N)c3)nn3ccc(NC(=O)NCC(C)(C)N)nc23)cc(Cl)n1 [Example 31.4, 1-(2-Amino-2-methyl-propyl)-3-[3-(2-chloro-6-methyl-4-pyridyl)-2-(3-cyanophenyl)pyrazolo[1,5-a]pyrimidin-5-yl]urea trifluoroacetate]",9.8 nM,13 nM,112 nM,> 1000 nM
